We go through two compounds from patent US11833160B2, “Ursodeoxycholic acid derivatives as HDAC inhibitors for the treatment of polycystic diseases” (UNIVERSIDAD DEL PAIS VASCO/EUSKAL HERRIKO UNIBERTSITATEA, priority 2017, dated 2023).

Type in all cases: biochemical
One test concerns the target human HDAC9 (Homo sapiens, UniProt Q9UKV0). As to the kind of experiment: HDAC9 enzymatic activity assay (fluorogenic peptide). The note with it: 10-dose, 3-fold serial dilution, triplicate. On the procedure: (§1) Peptide substrates: all HDAC assays were performed using acetylated peptide substrates labeled with 7-amino-4-methylcoumarin (AMC): • Substrate for isoforms HDAC1, 2, 3, 6, 10, 11, and HeLa nuclear extract assays: acetylated fluorogenic peptide from p53 residues 379-382 (RHKKAc). • Substrate for isoforms HDAC4, 5, 7, 9: fluorogenic Boc-L-Lys (s-trifluoroacetyl)-AMC. • Substrate for HDAC8 assays: acetylated fluorogenic peptide from p53 residues 379-382 (RHKAcKAc).
(§2) 50 μl of peptide substrate (see “peptide substrates” section above) and an optimal concentration of the corresponding enzyme (see “enzymes” section above) in the assay buffer at a final DMSO concentration of 1% were incubated in the presence of gradient concentrations of inhibitors (10-dose IC50 mode with 3-fold serial dilution) at 30° C. for 2 hours. The reactions were carried out in a 96-well microplate for fluorometry in a 50 μl reaction volume. After the deacetylation reaction, Fluor-de-Lys-Developer (BioMol Cat. #KI-105) was added to each well to digest the deacetylated substrate, thereby producing the fluorescent signal. The reaction was carried out for 45 minutes at 30° C. with 5% CO2; the fluorescent signal was then measured using an excitation wavelength of 360 nm and an emission wavelength of 460 nm in a microplate-reading fluorometer (GeminiXS, Molecular Devices, Sunnyvale, CA). […]

The target in another test is T1, human HDAC3/NcoR2 (Homo sapiens, UniProt O15379).
T1 construct: human HDAC3 complex, full length with His C-terminal tag, MW=49.7 kDa; His (C); purchased BioMol SE-507; host or cells: baculovirus expression system
T1 sequence (O15379 whole entry): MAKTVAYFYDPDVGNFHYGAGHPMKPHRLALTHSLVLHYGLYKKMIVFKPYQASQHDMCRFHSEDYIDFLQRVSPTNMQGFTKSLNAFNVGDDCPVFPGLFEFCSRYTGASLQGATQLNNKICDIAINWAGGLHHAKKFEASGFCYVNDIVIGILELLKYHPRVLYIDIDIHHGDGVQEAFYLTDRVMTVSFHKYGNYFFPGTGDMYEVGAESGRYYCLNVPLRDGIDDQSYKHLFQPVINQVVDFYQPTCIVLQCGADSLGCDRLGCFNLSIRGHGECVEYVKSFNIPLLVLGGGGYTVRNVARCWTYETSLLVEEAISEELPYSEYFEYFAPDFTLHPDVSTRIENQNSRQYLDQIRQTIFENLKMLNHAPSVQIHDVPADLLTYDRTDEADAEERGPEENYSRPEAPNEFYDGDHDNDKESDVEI
T1 sequence (Q9Y618 395-489 partner limits assumed): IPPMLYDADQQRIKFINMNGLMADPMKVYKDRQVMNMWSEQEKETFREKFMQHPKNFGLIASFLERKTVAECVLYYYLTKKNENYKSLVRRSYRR
Nature of the test: HDAC3 enzymatic activity assay (fluorogenic peptide). The note with it: 10-dose, 3-fold serial dilution, triplicate. Here is the method:
as §1, §2

Another test addresses T2, human HDAC6 (Homo sapiens, UniProt Q9UBN7).
T2 construct: GST (N); purchased BioMol SE-508; host or cells: baculovirus / Sf9 cells
T2 sequence (Q9UBN7 1-1215): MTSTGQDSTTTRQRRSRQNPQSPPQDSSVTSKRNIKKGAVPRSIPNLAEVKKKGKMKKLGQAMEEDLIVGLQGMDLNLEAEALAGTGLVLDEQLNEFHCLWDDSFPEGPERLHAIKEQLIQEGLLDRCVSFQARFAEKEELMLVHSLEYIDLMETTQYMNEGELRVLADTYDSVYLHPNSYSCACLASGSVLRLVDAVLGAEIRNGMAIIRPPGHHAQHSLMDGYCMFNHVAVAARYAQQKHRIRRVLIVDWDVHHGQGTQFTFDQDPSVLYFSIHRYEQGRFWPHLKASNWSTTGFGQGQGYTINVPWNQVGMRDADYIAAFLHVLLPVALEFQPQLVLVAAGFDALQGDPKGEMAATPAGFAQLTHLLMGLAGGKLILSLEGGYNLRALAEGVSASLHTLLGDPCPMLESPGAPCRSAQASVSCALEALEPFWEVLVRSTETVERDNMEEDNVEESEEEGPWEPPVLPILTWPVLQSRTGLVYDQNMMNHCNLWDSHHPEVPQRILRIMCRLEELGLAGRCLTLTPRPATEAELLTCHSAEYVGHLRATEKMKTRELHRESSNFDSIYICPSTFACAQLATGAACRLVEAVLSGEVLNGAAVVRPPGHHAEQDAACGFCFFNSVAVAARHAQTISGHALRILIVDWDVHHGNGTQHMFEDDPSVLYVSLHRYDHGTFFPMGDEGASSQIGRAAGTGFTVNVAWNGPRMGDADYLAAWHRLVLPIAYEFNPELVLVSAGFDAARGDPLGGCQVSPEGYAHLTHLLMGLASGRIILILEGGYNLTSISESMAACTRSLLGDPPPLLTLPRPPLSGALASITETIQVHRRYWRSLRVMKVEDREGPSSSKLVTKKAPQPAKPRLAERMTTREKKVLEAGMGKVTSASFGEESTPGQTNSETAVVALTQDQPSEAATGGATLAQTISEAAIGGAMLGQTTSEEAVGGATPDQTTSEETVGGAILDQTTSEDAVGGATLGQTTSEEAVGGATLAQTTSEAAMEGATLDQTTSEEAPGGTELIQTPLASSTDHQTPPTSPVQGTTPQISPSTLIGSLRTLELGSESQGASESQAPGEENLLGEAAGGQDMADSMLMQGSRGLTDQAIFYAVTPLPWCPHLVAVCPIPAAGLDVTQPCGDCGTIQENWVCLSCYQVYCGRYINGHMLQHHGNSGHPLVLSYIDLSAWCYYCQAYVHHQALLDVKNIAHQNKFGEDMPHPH
Nature of the test: HDAC6 enzymatic activity assay (fluorogenic peptide). To be noted: for IC50: 10-dose, 3-fold serial dilution, triplicate. Here is the method: as §1
50 μl of peptide substrate (see “peptide substrates” section above) and an optimal concentration of the corresponding enzyme (see “enzymes” section above) in the assay buffer at a final DMSO concentration of 1% were incubated in the presence of gradient concentrations of inhibitors (10-dose IC50 mode with 3-fold serial dilution) at 30° C. for 2 hours. The reactions were carried out in a 96-well microplate for fluorometry in a 50 μl reaction volume. After the deacetylation reaction, Fluor-de-Lys-Developer (BioMol Cat. #KI-105) was added to each well to digest the deacetylated substrate, thereby producing the fluorescent signal. The reaction was carried out for 45 minutes at 30° C. with 5% CO2; the fluorescent signal was then measured using an excitation wavelength of 360 nm and an emission wavelength of 460 nm in a microplate-reading fluorometer (GeminiXS, Molecular Devices, Sunnyvale, CA). A curve of deacetylated standard (Biomol, Cat. #KI-142; made from 100 μM with 1:2 dilution and 10 doses, 6 μl) allowed the conversion of the fluorescent signal into micromoles of deacetylated product. All experiments were performed in triplicate. The IC50s were calculated by fitting the experimental data to dose-response curve. DMSO was used as negative control; Trichostatin A (Biomol Cat. #GR-309) was used as positive control inhibitor.
Enzymatic activity assays were carried out in 11 HDAC enzymes, including HDAC6.

The next test concerns the target T3, human HDAC11 (Homo sapiens, UniProt Q96DB2).
T3 construct: GST (N); purchased BioMol SE-560; host or cells: baculovirus expression system
T3 sequence (Q96DB2 1-347): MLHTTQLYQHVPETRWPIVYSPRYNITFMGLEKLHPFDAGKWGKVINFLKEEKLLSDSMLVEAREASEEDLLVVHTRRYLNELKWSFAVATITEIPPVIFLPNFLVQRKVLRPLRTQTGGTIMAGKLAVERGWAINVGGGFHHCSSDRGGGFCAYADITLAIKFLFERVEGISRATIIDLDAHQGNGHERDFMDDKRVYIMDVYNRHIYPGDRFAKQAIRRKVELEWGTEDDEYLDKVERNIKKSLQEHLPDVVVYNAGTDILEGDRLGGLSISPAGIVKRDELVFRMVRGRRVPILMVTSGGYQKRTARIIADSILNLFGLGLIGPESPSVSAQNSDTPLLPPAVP
As to the kind of experiment: HDAC11 enzymatic activity assay (fluorogenic peptide). The note with it: 10-dose, 3-fold serial dilution, triplicate. On the procedure: as §1, §2

Chain of human HDAC9 (Q9UKV0 604-1066 isoform Q9UKV0-5): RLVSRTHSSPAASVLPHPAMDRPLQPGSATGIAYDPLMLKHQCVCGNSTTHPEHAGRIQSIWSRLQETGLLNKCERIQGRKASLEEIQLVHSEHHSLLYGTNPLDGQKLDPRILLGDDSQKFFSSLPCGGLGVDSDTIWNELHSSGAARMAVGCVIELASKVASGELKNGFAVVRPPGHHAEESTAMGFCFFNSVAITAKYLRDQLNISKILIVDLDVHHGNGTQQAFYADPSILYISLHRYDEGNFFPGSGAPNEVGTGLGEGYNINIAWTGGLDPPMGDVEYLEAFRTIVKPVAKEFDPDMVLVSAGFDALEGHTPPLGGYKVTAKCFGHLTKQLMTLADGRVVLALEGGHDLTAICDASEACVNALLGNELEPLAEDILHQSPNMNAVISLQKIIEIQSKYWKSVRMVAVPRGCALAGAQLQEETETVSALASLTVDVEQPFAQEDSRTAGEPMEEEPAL

Turning to `C[C@H](CCC(=O)NCc1ccc(C(=O)NO)cc1)[C@H]1CC[C@H]2[C@@H]3[C@@H](O)C[C@@H]4C[C@H](O)CC[C@]4(C)[C@H]3CC[C@]12C` [Compound Ia], the IC50 against human HDAC9 came out at 13.4 µM; at human HDAC3/NcoR2 it was 8.37 µM; at human HDAC6 it was 0.058 µM; against human HDAC11, 2.33 µM. In addition, the “selectivity and inhibitory capacity with respect to HDAC6 enzyme” value at human HDAC6 is “nanomolar range”. The HDAC6 selectivity proportion at human HDAC6 (matches IC50 HDAC1 / IC50 HDAC6) worked out at 174.

In the case of `C[C@H](CCC(=O)NCC(=O)NCc1ccc(C(=O)NO)cc1)[C@H]1CC[C@H]2[C@@H]3[C@@H](O)C[C@@H]4C[C@H](O)CC[C@]4(C)[C@H]3CC[C@]12C` [Ib, 4-((2-((R)-4 ((3R,5S,7S,8R,9S,10S,13R,14S,17R)-3,7-dihydroxy-10,13-dimethylhexadecahydro-1H-cyclopenta[a]phenanthren-17-yl)pentanamide)acetamido)methyl)-N-hydroxybenzamide], the IC50 came to 11.6 µM at human HDAC9, 9.99 µM against human HDAC3/NcoR2, 0.0561 µM against human HDAC6 and 2.56 µM at human HDAC11. In addition, the “selectivity and inhibitory capacity with respect to HDAC6 enzyme” value at human HDAC6 is on record as “nanomolar range”.

What is called IC50 is the point on the concentration scale where inhibition reaches its midpoint. High values mean weaker potency in that assay, low ones greater potency in that assay.
